From PubChem BioAssay (NCI) come the findings set out here.

Some test systems named below: PC-3 prostate; HS 578T breast; COLO 205 colon; HCT-15 colon; UO-31 renal; HL-60(TB) leukemia; SNB-75 CNS; MDA-N; LOX IMVI melanoma; SK-MEL-2 melanoma; SK-OV-3 ovarian; NCI-H460 lung; NCI/ADR-RES ovarian; MDA-MB-231 breast; SW-620 colon; RPMI-8226 leukemia; HOP-92 NSCLC; NCI-H522 lung; HT29 colon; MOLT-4 leukemia.
Assay in all cases: NCI anticancer screen, dose series, 48 h

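Compound exposure: 48 hours, 5 concentrations, 96-well plates. TGI marks complete inhibition of growth.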 Bounds are passed on as bounds.

As for `CN(C)CCCc1cccnc1`, the TGI in the experiment with PC-3 prostate, in the experiment on HS 578T breast, in the experiment with COLO 205 colon, in the experiment on HCT-15 colon, in the experiment on UO-31 renal and in the experiment on HL-60(TB) leukemia was above 100 µM throughout. For the same molecule, the TGI in the experiment on SNB-75 CNS, in the experiment with MDA-N, in the experiment with LOX IMVI melanoma, in the experiment on SK-MEL-2 melanoma, in the experiment with SK-OV-3 ovarian and with NCI-H460 lung was above 100 µM throughout. The TGI with NCI/ADR-RES ovarian, in the experiment on MDA-MB-231 breast, in the experiment with SW-620 colon, in the experiment on RPMI-8226 leukemia, with HOP-92 NSCLC and in the experiment with NCI-H522 lung was above 100 µM in each case. Besides, in the experiment with HT29 colon, the TGI was above 100 µM.

With `CC1=NN(C(=O)CC(=O)Nc2ccccc2C)C(=O)C1N=Nc1ccc(S(=O)(=O)c2ccc(N=NC3C(=O)N(C(=O)CC(=O)Nc4ccccc4C)N=C3C)cc2)cc1` (configuration not stated), the TGI in the experiment with PC-3 prostate, in the experiment with HS 578T breast, in the experiment with COLO 205 colon, with HCT-15 colon, in the experiment on UO-31 renal and in the experiment with HL-60(TB) leukemia was above 100 µM in each case. Also, the TGI in the experiment on SNB-75 CNS, with MDA-N, in the experiment with LOX IMVI melanoma, in the experiment with SK-MEL-2 melanoma, in the experiment on SK-OV-3 ovarian and in the experiment on NCI-H460 lung was above 100 µM each time. Also, the TGI in the experiment with NCI/ADR-RES ovarian, in the experiment with MDA-MB-231 breast, in the experiment on RPMI-8226 leukemia, with HOP-92 NSCLC, in the experiment with NCI-H522 lung and in the experiment with HT29 colon was above 100 µM in each case. In the experiment with MOLT-4 leukemia, this molecule gave a TGI above 100 µM.

For the molecule `CCOC(=O)C1(Cc2ccccc2)Cc2cc3c(cc2C1=O)CCC3` (configuration not stated), the TGI in the experiment with PC-3 prostate, in the experiment on HS 578T breast, in the experiment with COLO 205 colon, with HCT-15 colon, with UO-31 renal and in the experiment with HL-60(TB) leukemia was above 100 µM each time. The TGI with SNB-75 CNS, with MDA-N, with LOX IMVI melanoma, with SK-MEL-2 melanoma, in the experiment with SK-OV-3 ovarian and in the experiment with NCI-H460 lung was above 100 µM throughout. Also, the TGI with NCI/ADR-RES ovarian, with MDA-MB-231 breast, in the experiment on SW-620 colon, in the experiment on RPMI-8226 leukemia, in the experiment on HOP-92 NSCLC and in the experiment with HT29 colon was above 100 µM throughout. The TGI in the experiment on MOLT-4 leukemia was above 100 µM.

As for `CCc1ccc(CCC(=O)O)nc1`, the TGI in the experiment on PC-3 prostate, in the experiment on HS 578T breast, in the experiment on COLO 205 colon, in the experiment with HCT-15 colon, in the experiment on UO-31 renal and with HL-60(TB) leukemia was above 100 µM throughout. The TGI in the experiment on SNB-75 CNS, with MDA-N, with LOX IMVI melanoma, with SK-MEL-2 melanoma, in the experiment on SK-OV-3 ovarian and in the experiment on NCI-H460 lung was above 100 µM in each case. Further, the TGI with NCI/ADR-RES ovarian, in the experiment on MDA-MB-231 breast, with SW-620 colon, in the experiment on RPMI-8226 leukemia, in the experiment on HOP-92 NSCLC and in the experiment with NCI-H522 lung was above 100 µM each time. For the same molecule, the TGI in the experiment on HT29 colon is above 100 µM.

Take `O=C1C=C(c2c(-c3ccccc3)[nH]c3ccccc23)C(=O)N1c1ccccc1`: the TGI with PC-3 prostate was 21.8 µM; in the experiment on HS 578T breast, 52.8 µM; in the experiment with COLO 205 colon, 24.5 µM; in the experiment on HCT-15 colon, 23.8 µM; in the experiment with UO-31 renal, 28.9 µM; in the experiment on HL-60(TB) leukemia it was 24.1 µM. Further, the TGI with MDA-N was 15.7 µM; in the experiment with LOX IMVI melanoma it was 24 µM; with SK-MEL-2 melanoma it was 28.4 µM; in the experiment on SK-OV-3 ovarian, above 100 µM; in the experiment with NCI-H460 lung, 35.3 µM; in the experiment with NCI/ADR-RES ovarian, 66.2 µM. The TGI was 25.6 µM with MDA-MB-231 breast; 18.4 µM in the experiment on SW-620 colon; above 100 µM with RPMI-8226 leukemia; 30.6 µM with HOP-92 NSCLC; 29.7 µM with HT29 colon; above 100 µM in the experiment on MOLT-4 leukemia.

For the molecule `COc1cc(CNc2nc3ccccc3nc2-c2cccs2)cc(OC)c1OC`, the TGI with PC-3 prostate was 39.4 µM; with HS 578T breast, 74.8 µM; in the experiment with COLO 205 colon, above 100 µM; in the experiment on HCT-15 colon it was above 100 µM; in the experiment with UO-31 renal, 25 µM; in the experiment with HL-60(TB) leukemia it was above 100 µM. The TGI with SNB-75 CNS is above 100 µM; in the experiment on MDA-N it was 95.8 µM; in the experiment on LOX IMVI melanoma it was 42.6 µM; in the experiment on SK-OV-3 ovarian, above 100 µM; with NCI-H460 lung, 37.5 µM; in the experiment with NCI/ADR-RES ovarian, 51.2 µM. The TGI in the experiment with MDA-MB-231 breast was above 100 µM; in the experiment with SW-620 colon, above 100 µM; with RPMI-8226 leukemia it was 53.4 µM; with HOP-92 NSCLC, 10.1 µM; in the experiment on NCI-H522 lung, 38.7 µM; in the experiment on HT29 colon, above 100 µM. In the experiment with MOLT-4 leukemia, the TGI was 29.6 µM.

Turning to `COCC[N+](CCNC(=O)c1cccc2c(N)c3cccc(C)c3nc12)(CCOC)Cc1ccc([N+](=O)[O-])cc1`, the TGI with PC-3 prostate is above 100 µM; with HS 578T breast, 39.3 µM; in the experiment on COLO 205 colon, 43 µM; in the experiment on HCT-15 colon it was above 100 µM; with UO-31 renal, above 100 µM; in the experiment with HL-60(TB) leukemia, 40.1 µM. The TGI in the experiment with SNB-75 CNS was 61.7 µM; with MDA-N, above 100 µM; in the experiment with LOX IMVI melanoma it was 81.5 µM; with SK-MEL-2 melanoma it was above 100 µM; in the experiment with NCI-H460 lung it was 29.5 µM; with NCI/ADR-RES ovarian, above 100 µM. Further, the TGI with MDA-MB-231 breast is 58.8 µM; in the experiment with SW-620 colon it was above 100 µM; in the experiment on RPMI-8226 leukemia it was 27.2 µM; in the experiment with HOP-92 NSCLC it was 94.6 µM; in the experiment with NCI-H522 lung, 36.3 µM; in the experiment with HT29 colon, 76.5 µM. In the experiment with MOLT-4 leukemia, the TGI was 39.2 µM.
